Test results from the supplement of paper PMC4862054.

Tests used:
Conditions in all cases: incubation time: 72 h
CAL-120 [1] = test: drug sensitivity score (DSS), CellTiter-Glo (DSS (AUC-based score)); higher = stronger drug effect (viability inhibition or cytotoxicity); extreme values may be limits of the assay
Procedure, shortened: (§1)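 The drug sensitivity score reflects the area under a fitted dose-response curve. To obtain it, breast cancer cells in 20 µl suspension were seeded into 384-well plates containing compound at 5 concentrations, 10-fold apart over a compound-specific 10,000-fold range, and incubated 72 h. CellTox Green fluorescence (485/520 nm) was read first and CellTiter-Glo luminescence second, after 10 min at room temperature. Each plate was normalised to 0.1 % DMSO and a positive kill control.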

CAL-85-1 [2] = test: as above
Procedure, shortened: as §1

MDA-MB-231 [3] = test: as above
Procedure, shortened: as §1

MDA-MB-453 [4] = test: as above
Procedure, shortened: as §1

MDA-MB-468 [5] = test: as above
Procedure, shortened: as §1

BT-474 = test: drug sensitivity score (DSS), CellTox Green (DSS (AUC-based score)); higher = stronger drug effect (viability inhibition or cytotoxicity); extreme values may be limits of the assay
Procedure, shortened: as §1

BT-549 = test: as above
Procedure, shortened: as §1

CAL-120 [6] = test: as above
Procedure, shortened: as §1

CAL-148 = test: as above
Procedure, shortened: as §1

CAL-51 = test: as above
Procedure, shortened: as §1

CAL-85-1 [7] = test: as above
Procedure, shortened: as §1

DU-4475 = test: as above
Procedure, shortened: as §1

HCC1143 = test: as above
Procedure, shortened: as §1

HCC1599 = test: as above
Procedure, shortened: as §1

HCC1937 = test: as above
Procedure, shortened: as §1

HDQ-P1 = test: as above
Procedure, shortened: as §1

Hs578T = test: as above
Procedure, shortened: as §1

MCF-10A = test: as above
Procedure, shortened: as §1

MDA-MB-231 [8] = test: as above
Procedure, shortened: as §1

MDA-MB-436 = test: as above
Procedure, shortened: as §1

MDA-MB-453 [9] = test: as above
Procedure, shortened: as §1

MDA-MB-468 [10] = test: as above
Procedure, shortened: as §1

MFM-223 = test: as above
Procedure, shortened: as §1

| Structure (SMILES) | drug sensitivity score (CAL-120 [1]) | drug sensitivity score (CAL-85-1 [2]) | drug sensitivity score (MDA-MB-231 [3]) | drug sensitivity score (MDA-MB-453 [4]) | drug sensitivity score (MDA-MB-468 [5]) | drug sensitivity score (BT-474) | drug sensitivity score (BT-549) | drug sensitivity score (CAL-120 [6]) | drug sensitivity score (CAL-148) | drug sensitivity score (CAL-51) | drug sensitivity score (CAL-85-1 [7]) | drug sensitivity score (DU-4475) | drug sensitivity score (HCC1143) | drug sensitivity score (HCC1599) | drug sensitivity score (HCC1937) | drug sensitivity score (HDQ-P1) | drug sensitivity score (Hs578T) | drug sensitivity score (MCF-10A) | drug sensitivity score (MDA-MB-231 [8]) | drug sensitivity score (MDA-MB-436) | drug sensitivity score (MDA-MB-453 [9]) | drug sensitivity score (MDA-MB-468 [10]) | drug sensitivity score (MFM-223) |
| --- | --- | --- | --- | --- | --- | --- | --- | --- | --- | --- | --- | --- | --- | --- | --- | --- | --- | --- | --- | --- | --- | --- | --- |
| CN(C)/N=N/c1[nH]cnc1C(N)=O [Dacarbazine] | 0.483 | 0 | 0 | 0 | 0 | 0 | 0 | 0 | 2.9 | 0 | 0 | 0 | 0 | 0 | 3.14 | 0 | 0 | 0 | 0 | 0 | 0 | 0 | 0 |
| N[C@@H](CSC(c1ccccc1)(c1ccccc1)c1ccccc1)C(=O)O [S-trityl-L-cysteine] | 0 | 0 | 0 | 0 | 0 | 0 | 0 | 0 | 0 | 0 | 0 | 0 | 0 | 0 | 3.46 | 0 | 0 | 0 | 0 | 0 | 0 | 0 | 0 |
| Cc1ccc(-n2nc(C(C)(C)C)cc2NC(=O)Nc2ccc(OCCN3CCOCC3)c3ccccc23)cc1 [Doramapimod] | 0 | 0 | 0 | 1.59 | 2.44 | 0 | 0 | 0 | 0 | 0 | 0 | 0 | 0 | 0 | 0 | 0 | 3.19 | 0 | 0 | 2.62 | 0 | 0 | 0 |
| CCCCCCCCCCCCCCCCCCOP(=O)([O-])OC1CC[N+](C)(C)CC1 [Perifosine] | 0 | 0 | 0 | 0 | 0 | 0 | 0 | 0 | 0 | 0 | 0 | 0 | 0 | 0 | 0 | 0 | 0 | 0 | 0 | 0 | 0 | 0 | 0 |
| COc1cc([C@@H]2c3cc4c(cc3[C@@H](O[C@@H]3O[C@@H]5CO[C@@H](C)O[C@H]5[C@H](O)[C@H]3O)[C@H]3COC(=O)[C@H]23)OCO4)cc(OC)c1O [Etoposide] | 2.02 | 0.96 | 0.846 | 0 | 5.45 | 0 | 0 | 1.57 | 5.65 | 9.25 | 1.64 | 0.895 | 0 | 0 | 0 | 0 | 20.3 | 0 | 0 | 0 | 0 | 7.2 | 0 |
| O=C(CCCCCCC(=O)Nc1ccc([C@H]2O[C@@H](CSc3nc(-c4ccccc4)c(-c4ccccc4)o3)C[C@@H](c3ccc(CO)cc3)O2)cc1)NO [Tubacin] | 4.36 | 7.14 | 6.83 | 8.42 | 8.6 | 1.77 | 0 | 0 | 0 | 3.54 | 5.67 | 0 | 2.07 | 0 | 10.6 | 0 | 0.503 | 0 | 7.97 | 0 | 1.38 | 0 | 0 |
| CN(N=O)C(=O)N[C@@H](C=O)[C@@H](O)[C@H](O)[C@H](O)CO [Streptozocin] | 0 | 0 | 0 | 0 | 0 | 0 | 0 | 0 | 0 | 0 | 0 | 0 | 0 | 0 | 0 | 0 | 0 | 0 | 0 | 0 | 0 | 3.14 | 0 |
| CCC1=C[C@@H]2CN(C1)Cc1c([nH]c3ccccc13)[C@@](C(=O)OC)(c1cc3c(cc1OC)N(C)[C@H]1[C@@](O)(C(=O)OC)[C@H](OC(C)=O)[C@]4(CC)C=CCN5CC[C@]31[C@@H]54)C2 [Vinorelbine] | 13.2 | 19.8 | 13.7 | 15.6 | 24.8 | 10 | 4.21 | 1.84 | 9.47 | 24.9 | 11.7 | 0 | 0 | 2.9 | 0 | 0 | 23.3 | 23.7 | 18.1 | 3.27 | 0 | 5.08 | 12.7 |
| COc1cc2nccc(Oc3ccc(NC(=O)C4(C(=O)Nc5ccc(F)cc5)CC4)cc3)c2cc1OC [Cabozantinib] | 0 | 0 | 0 | 0 | 0 | 0 | 0 | 0 | 0 | 0 | 0 | 0 | 0 | 0 | 0 | 0 | 0 | 0 | 0 | 0 | 0 | 0 | 0 |
| CCC1(c2ccc(N)cc2)CCC(=O)NC1=O (stereo not given) [Aminoglutethimide] | 0 | 0 | 0 | 0 | 0 | 0 | 0 | 0 | 0 | 0 | 0 | 0 | 0 | 0 | 0 | 0 | 0 | 0 | 0 | 0 | 0 | 0 | 0 |
| Clc1ccc(Nc2nnc(Cc3ccncc3)c3ccccc23)cc1 [Vatalanib] | 0 | 0 | 0 | 0 | 0 | 0 | 0 | 0 | 1.43 | 0 | 0 | 0 | 0 | 0 | 0 | 0 | 0 | 2.74 | 0 | 0 | 0 | 0 | 0 |
| N#CCNC(=O)c1ccc(-c2ccnc(Nc3ccc(N4CCOCC4)cc3)n2)cc1 [Momelotinib] | 5.07 | 4.3 | 4.43 | 0 | 5.4 | 0 | 2.78 | 0 | 0 | 0 | 4.03 | 0 | 0 | 0 | 0 | 0 | 0 | 0 | 7.53 | 0 | 0 | 2.22 | 0 |
| CO[C@H]1/C=C\C=C(/C)C(=O)NC2=CC(=O)C(NCCN(C)C)=C(C[C@@H](C)C[C@H](OC)[C@H](O)[C@@H](C)/C=C(\C)[C@@H]1OC(N)=O)C2=O [Alvespimycin] | 8.6 | 13.9 | 13.3 | 15.3 | 11.9 | 4.58 | 0 | 0.117 | 9.12 | 6.02 | 6.41 | 4.5 | 9.99 | 0 | 1.6 | 4.4 | 7.05 | 13 | 7.29 | 0 | 0.783 | 1.6 | 0 |
| COc1cc2ncnc(Nc3ccc(F)c(Cl)c3)c2cc1NC(=O)/C=C/CN1CCCCC1 [Dacomitinib] | 0 | 8.62 | 0.139 | 5.43 | 3.31 | 6.2 | 0 | 0 | 0 | 0 | 4.64 | 0 | 0 | 0 | 0 | 0 | 0 | 0 | 0 | 2.58 | 0 | 0 | 0 |
| CS(=O)(=O)c1ccc(C2=C(c3ccccc3)C(=O)OC2)cc1 [Rofecoxib] | 0 | 0 | 0 | 0 | 0 | 1.58 | 0 | 0 | 0 | 0 | 0 | 0 | 0 | 0 | 1.95 | 0 | 0 | 0 | 0 | 0 | 0 | 3.77 | 0 |
